Laboratory results published in US20070128217A1 (priority 2003, published 2007).

Columns and labels:
[1] = system: antibodies in sera from SARS patients (sera 1a, 1b, 2, 6, 37, 62, London, SARS-yellow, SARS-green); assay type: binding, human; set-up: Binding of serum 6 to linear peptides of protein X1 of SARS-CoV Urbani / Binding of serum 37 to linear peptides of protein X1 of SARS-CoV Urbani / Binding of serum 6 to looped/cyclic peptide (PEPSCAN-ELISA) / Binding of serum 37 to looped/cyclic peptide (PEPSCAN-ELISA) / Binding of serum 37 to looped/cyclic peptides of protein X1 of SARS-CoV Urbani / Binding of serum 6 to linear peptides of protein X2 / Binding of serum 37 to linear peptides of protein X2 / Binding of serum 37 to looped/cyclic peptides of protein X2 of SARS-CoV Urbani / Binding of serum 6 to linear peptides of protein M of SARS-CoV Urbani / Binding of serum 37 to linear peptides of protein M of SARS-CoV Urbani / Binding of serum 6 to looped/cyclic peptides of protein M of SARS-CoV Urbani / Binding of serum 37 to looped/cyclic peptides of protein M of SARS-CoV Urbani / Binding of serum 6 to linear peptides of protein X3 of SARS-CoV Urbani / Binding of serum 37 to linear peptides of protein X3 of SARS-CoV Urbani / Binding of serum 37 to looped/cyclic peptides of protein X3 of SARS-CoV Urbani / Binding of serum 6 to linear peptides of protein X4 of SARS-CoV Urbani / Binding of serum 37 to linear peptides of protein X4 of SARS-CoV Urbani / Binding of serum 37 to looped/cyclic peptides of protein X4 of SARS-CoV Urbani / Binding of serum 6 to linear peptides of protein X5 of SARS-CoV Urbani / Binding of serum 37 to linear peptides of protein X5 of SARS-CoV Urbani / Binding of serum 37 to looped/cyclic peptides of protein X5 of SARS-CoV Urbani / Binding of serum 6 to linear peptides of protein N of SARS-CoV Urbani / Binding of serum 37 to linear peptides of protein N of SARS-CoV Urbani / Binding of serum 6 to linear peptide (PEPSCAN-ELISA) / Binding of serum 1a to looped/cyclic peptides of protein N of SARS-CoV Urbani / Binding of serum 1b to looped/cyclic peptides of protein N of SARS-CoV Urbani / Binding of serum 2 to looped/cyclic peptides of protein N of SARS-CoV Urbani / Binding of serum 6 to looped/cyclic peptides of protein N of SARS-CoV Urbani / Binding of serum 37 to looped/cyclic peptides of protein N of SARS-CoV Urbani / Binding of serum 62 to looped/cyclic peptides of protein N of SARS-CoV Urbani / Binding of serum London to looped/cyclic peptides of protein N of SARS-CoV Urbani / Binding of serum SARS-green to looped/cyclic peptides of protein N of SARS-CoV Urbani: unit not given here
[2] = system: control sera (pooled serum of ten healthy LUMC hospital workers; commercial negative donor pooled serum from the Dutch bloodbank); assay type: binding, human; set-up: Binding of Control serum LUMC to linear peptides / Binding of Control serum Blood-bank to linear peptides / Binding of Control serum LUMC to looped peptides / Binding of Control Serum Blood-Bank to Looped peptides / Binding of Control serum LUMC to linear peptides of the protein M of SARS-CoV Urbani / Binding of Control serum Blood-bank to linear peptides of the protein M of SARS-CoV Urbani / Binding of Control serum LUMC to looped peptides of the protein M of SARS-CoV Urbani / Binding of Control Serum Blood-Bank to Looped peptides of the protein M of SARS-CoV Urbani: unit not given here
[3] = system: rabbit serum obtained by immunizing a rabbit with the SARS-CoV strain Frankfurt 1; assay type: binding; set-up: Binding of a rabbit serum to linear peptides / Binding of a rabbit serum to looped peptides / Rabbit serum linear peptides / Rabbit serum looped peptides / Binding of a rabbit serum to linear peptides of protein N of SARS-CoV Urbani (Rabbit serum linear peptides) / Binding of a rabbit serum to looped/cyclic peptides of protein N of SARS-CoV Urbani (Rabbit serum looped peptides): unit not given here

Sequence: VFLWLLWPVTLACFV
- Binding of serum 1a to linear peptides of protein M of SARS-CoV Urbani [1]: 0.8
- Binding of serum 1a to looped/cyclic peptides of protein M of SARS-CoV Urbani [1]: 0.7
- Binding of serum 1b to linear peptides of protein M of SARS-CoV Urbani [1]: 0.6
- Binding of serum 1b to looped/cyclic peptides of protein M of SARS-CoV Urbani [1]: 0.0
- Binding of serum 2 to linear peptides of protein M of SARS-CoV Urbani [1]: 0.6
- Binding of serum 2 to looped/cyclic peptides of protein M of SARS-CoV Urbani [1]: 0.7
- Binding of serum 6 to linear peptides of protein M of SARS-CoV Urbani [1]: 0.4
- Binding of serum 6 to looped/cyclic peptides of protein M of SARS-CoV Urbani [1]: 0.5
- Binding of serum 37 to linear peptides of protein M of SARS-CoV Urbani [1]: 0.5
- Binding of serum 37 to looped/cyclic peptides of protein M of SARS-CoV Urbani [1]: 0.7
- Binding of serum 62 to linear peptides of protein M of SARS-CoV Urbani [1]: 0.5
- Binding of serum 62 to looped/cyclic peptides of protein M of SARS-CoV Urbani [1]: 0.7
- Binding of serum London to linear peptides of protein M of SARS-CoV Urbani [1]: 0.5
- Binding of serum London to looped/cyclic peptides of protein M of SARS-CoV Urbani [1]: 0.2
- Binding of serum SARS-green to linear peptides of protein M of SARS-CoV Urbani [1]: 0.6
- Binding of serum SARS-green to looped/cyclic peptides of protein M of SARS-CoV Urbani [1]: 0.3
- Binding of serum SARS-yellow to linear peptides of protein M of SARS-CoV Urbani [1]: 0.3
- Binding of serum SARS-yellow to looped/cyclic peptides of protein M of SARS-CoV Urbani [1]: 0.8
- Binding of Control Serum Blood-Bank to Looped peptides of the protein M of SARS-CoV Urbani [2]: 0.8
- Binding of Control serum Blood-bank to linear peptides of the protein M of SARS-CoV Urbani [2]: 0.6
- Binding of Control serum LUMC to linear peptides of the protein M of SARS-CoV Urbani [2]: 0.6
- Binding of Control serum LUMC to looped peptides of the protein M of SARS-CoV Urbani [2]: 0.8
- Rabbit serum linear peptides [3]: 0.3
- Rabbit serum looped peptides [3]: 0.3

Sequence: HTYQLRARSVSPKLF
- Binding of serum 1a to linear peptides of protein X4 of SARS-CoV Urbani [1]: 0.7
- Binding of serum 1a to looped/cyclic peptides of protein X4 of SARS-CoV Urbani [1]: 0.8
- Binding of serum 1b to linear peptides of protein X4 of SARS-CoV Urbani [1]: 0.8
- Binding of serum 1b to looped/cyclic peptides of protein X4 of SARS-CoV Urbani [1]: 0.5
- Binding of serum 2 to linear peptides of protein X4 of SARS-CoV Urbani [1]: 0.6
- Binding of serum 2 to looped/cyclic peptides of protein X4 of SARS-CoV Urbani [1]: 0.8
- Binding of serum 6 to linear peptides of protein X4 of SARS-CoV Urbani [1]: 1.0
- Binding of serum 6 to looped/cyclic peptides of protein X4 of SARS-CoV Urbani [1]: 0.8
- Binding of serum 37 to linear peptides of protein X4 of SARS-CoV Urbani [1]: 1.0
- Binding of serum 37 to looped/cyclic peptides of protein X4 of SARS-CoV Urbani [1]: 0.6
- Binding of serum 62 to linear peptides of protein X4 of SARS-CoV Urbani [1]: 0.9
- Binding of serum 62 to looped/cyclic peptides of protein X4 of SARS-CoV Urbani [1]: 0.6
- Binding of serum London to linear peptides of protein X4 of SARS-CoV Urbani [1]: 0.8
- Binding of serum London to looped/cyclic peptides of protein X4 of SARS-CoV Urbani [1]: 0.3
- Binding of serum SARS-green to linear peptides of protein X4 of SARS-CoV Urbani [1]: 0.7
- Binding of serum SARS-green to looped/cyclic peptides of protein X4 of SARS-CoV Urbani [1]: 0.4
- Binding of serum SARS-yellow to linear peptides of protein X4 of SARS-CoV Urbani [1]: 0.5
- Binding of serum SARS-yellow to looped/cyclic peptides of protein X4 of SARS-CoV Urbani [1]: 0.8
- Binding of Control Serum Blood-Bank to Looped peptides [2]: 0.8
- Binding of Control serum Blood-bank to linear peptides [2]: 1.0
- Binding of Control serum LUMC to linear peptides [2]: 0.9
- Binding of Control serum LUMC to looped peptides [2]: 0.7
- Recognition of the peptide by the rabbit serum [3]: recognized

Sequence: YFVASFRLFARTRSM
- Binding of serum 1a to linear peptides of protein M of SARS-CoV Urbani [1]: 0.6
- Binding of serum 1b to linear peptides of protein M of SARS-CoV Urbani [1]: 0.4
- Binding of serum 2 to linear peptides of protein M of SARS-CoV Urbani [1]: 0.4
- Binding of serum 6 to linear peptides of protein M of SARS-CoV Urbani [1]: 0.4
- Binding of serum 37 to linear peptides of protein M of SARS-CoV Urbani [1]: 0.4
- Binding of serum 62 to linear peptides of protein M of SARS-CoV Urbani [1]: 0.6
- Binding of serum London to linear peptides of protein M of SARS-CoV Urbani [1]: 0.3
- Binding of serum SARS-green to linear peptides of protein M of SARS-CoV Urbani [1]: 0.3
- Binding of serum SARS-yellow to linear peptides of protein M of SARS-CoV Urbani [1]: 0.1
- Recognition of the peptide by sera of SARS-CoV infected individuals, and form (linear, looped/cyclic) in which it is recognized [1]: recognized in looped/cyclic form
- Binding of Control Serum Blood-Bank to Looped peptides of the protein M of SARS-CoV Urbani [2]: 0.9
- Binding of Control serum Blood-bank to linear peptides of the protein M of SARS-CoV Urbani [2]: 0.6
- Binding of Control serum LUMC to linear peptides of the protein M of SARS-CoV Urbani [2]: 0.3
- Binding of Control serum LUMC to looped peptides of the protein M of SARS-CoV Urbani [2]: 0.7
- Rabbit serum linear peptides [3]: 0.6
- Rabbit serum looped peptides [3]: 0.8

Sequence: LVLKMLHSSSLTSLL
- Binding of serum 1a to linear peptides of protein X2 [1]: 0.6
- Binding of serum 1a to looped/cyclic peptides of protein X2 of SARS-CoV Urbani [1]: 0.6
- Binding of serum 1b to linear peptides of protein X2 [1]: 0.4
- Binding of serum 1b to looped/cyclic peptides of protein X2 of SARS-CoV Urbani [1]: 0.5
- Binding of serum 2 to linear peptides of protein X2 [1]: 0.3
- Binding of serum 2 to looped/cyclic peptides of protein X2 of SARS-CoV Urbani [1]: 0.3
- Binding of serum 6 to linear peptides of protein X2 [1]: 0.3
- Binding of serum 6 to looped/cyclic peptides of protein X2 of SARS-CoV Urbani [1]: 0.4
- Binding of serum 37 to linear peptides of protein X2 [1]: 0.4
- Binding of serum 37 to looped/cyclic peptides of protein X2 of SARS-CoV Urbani [1]: 0.4
- Binding of serum 62 to linear peptides of protein X2 [1]: 0.5
- Binding of serum 62 to looped/cyclic peptides of protein X2 of SARS-CoV Urbani [1]: 0.6
- Binding of serum London to linear peptides of protein X2 [1]: 0.3
- Binding of serum London to looped/cyclic peptides of protein X2 of SARS-CoV Urbani [1]: 0.2
- Binding of serum SARS-green to linear peptides of protein X2 [1]: 0.5
- Binding of serum SARS-green to looped/cyclic peptides of protein X2 of SARS-CoV Urbani [1]: 0.3
- Binding of serum SARS-yellow to linear peptides of protein X2 [1]: 0.4
- Binding of serum SARS-yellow to looped/cyclic peptides of protein X2 of SARS-CoV Urbani [1]: 0.4
- Binding of Control Serum Blood-Bank to Looped peptides [2]: 0.7
- Binding of Control serum Blood-bank to linear peptides [2]: 0.5
- Binding of Control serum LUMC to linear peptides [2]: 0.2
- Binding of Control serum LUMC to looped peptides [2]: 0.6
- Binding of a rabbit serum to linear peptides [3]: 0.3
- Binding of a rabbit serum to looped peptides [3]: 0.4

Sequence: LCALGKVLPFHRWHT
- Binding of serum 1a to linear peptides of protein X5 of SARS-CoV Urbani [1]: 0.7
- Binding of serum 1a to looped/cyclic peptides of protein X5 of SARS-CoV Urbani [1]: 0.4
- Binding of serum 1b to linear peptides of protein X5 of SARS-CoV Urbani [1]: 0.6
- Binding of serum 1b to looped/cyclic peptides of protein X5 of SARS-CoV Urbani [1]: 0.2
- Binding of serum 2 to linear peptides of protein X5 of SARS-CoV Urbani [1]: 0.7
- Binding of serum 2 to looped/cyclic peptides of protein X5 of SARS-CoV Urbani [1]: 0.5
- Binding of serum 6 to linear peptides of protein X5 of SARS-CoV Urbani [1]: 0.5
- Binding of serum 6 to looped/cyclic peptides of protein X5 of SARS-CoV Urbani [1]: 0.4
- Binding of serum 37 to linear peptides of protein X5 of SARS-CoV Urbani [1]: 0.7
- Binding of serum 37 to looped/cyclic peptides of protein X5 of SARS-CoV Urbani [1]: 0.4
- Binding of serum 62 to linear peptides of protein X5 of SARS-CoV Urbani [1]: 0.8
- Binding of serum 62 to looped/cyclic peptides of protein X5 of SARS-CoV Urbani [1]: 0.6
- Binding of serum London to linear peptides of protein X5 of SARS-CoV Urbani [1]: 0.9
- Binding of serum London to looped/cyclic peptides of protein X5 of SARS-CoV Urbani [1]: 0.2
- Binding of serum SARS-green to linear peptides of protein X5 of SARS-CoV Urbani [1]: 0.6
- Binding of serum SARS-green to looped/cyclic peptides of protein X5 of SARS-CoV Urbani [1]: 0.4
- Binding of serum SARS-yellow to linear peptides of protein X5 of SARS-CoV Urbani [1]: 0.2
- Binding of serum SARS-yellow to looped/cyclic peptides of protein X5 of SARS-CoV Urbani [1]: 0.4
- Binding of Control Serum Blood-Bank to Looped peptides [2]: 0.4
- Binding of Control serum Blood-bank to linear peptides [2]: 0.7
- Binding of Control serum LUMC to linear peptides [2]: 0.5
- Binding of Control serum LUMC to looped peptides [2]: 0.6
- Rabbit serum linear peptides [3]: 0.7
- Rabbit serum looped peptides [3]: 0.7
